The target of the test is T1, human GPR84 receptor (Homo sapiens, UniProt Q9NQS5).
T1 construct: host or cells: HEK293 cells, transient transfection
Nature of the test: Gαi biosensor BRET assay in transfected HEK293 cells (antagonism of GPR84 agonist ZQ-16). In kind it is cell-based. To be noted: 200 nmol/L ZQ-16; for inhibition at 2 µM: code A = 2 μM; for inhibition at 10 µM: code F = 10 μM. The text has this: Background—The following assays can be used for determination of GPR84 activation in living HEK293 cells. The Gαi BRET biosensor (Gagnon et al., 2018; Gales et al., 2006. Nat Struct Mol Biol. 13, 778-86; Saulieres et al., 2012. Nat Chem Biol. 8, 622-30) allows to directly monitor GPR84-mediated activation of Gαi. The Gαi biosensor consists of a Rluc8-tagged Gαi2 subunit, a GFP10-tagged Gγ2 subunit, and an untagged Gβ1. Agonist stimulation and GPR84 activation triggers a physical separation between the RLuc8-Gαi donor and the GFP10-Gγ2 acceptor, resulting in a decrease in BRET signal whose amplitude is correlated to ligand efficacy (Gales et al., 2006). Moreover, signaling functions of GPCRs are tightly regulated by endocytosis, the targeting of receptors to endosomes and their sorting to lysosomes or recycling to the plasma membrane. The early endosomes (EEs) trafficking assay (Namkung et al., 2016. Nat Commun. 7, 12178) uses Rluc8-tagged GPR84 and Renilla GFP (rGFP) attached to the FYVE domain from human endofin/zinc finger FYVE domain-containing protein 16, which binds phosphatidylinositol 3-phosphate in EEs. Agonist stimulation of GPR84-Rluc8 leads to trafficking of the receptor to EEs, and ensuing increase of the donor concentration relative to the rGFP-FYVE acceptor anchored in the same cellular compartment, and thus results in an increase in BRET signal.
Plasmids—The cDNA clones for human GPR84 receptor, human Gαi2, Gβ1, and Gγ2 were obtained from the cDNA Resource Center (www.cdna.org). GFP10 (F64L, S147P, S202F and H231L variant of Aequorea victoria Green Fluorescent Protein) gBlocks gene fragments (Integrated DNA Technologies, IA) and linker were inserted in frame at the N-terminus of human Gγ2. Rluc8 (A55T, C124A, S130A, K136R, A143M, M185V, M253L, and S287L variant of the Renilla reniformis luciferase) gBlocks gene fragment was inserted with linkers in frame in between residues 91 and 92 of Gα2 or at the C-terminus of GPR84. The FYVE domain from human endofin (residues Q739 to K806) attached in frame at the C terminus of a humanized Renilla GFP (rGFP), were synthesized as gBlocks gene fragments.
Bioluminescence Resonance Energy Transfer (BRET) Measurement—HEK293 cells were transfected with GPR84-Rluc8 and rGFP-FYVE for the EEs trafficking biosensor or with GPR84, Gαi2-Rluc8, GFP10-Gγ2, and Gβ1 for the Gαi biosensor. The following day, transiently transfected cells were seeded in 96-well white clear bottom microplates coated with poly-D-lysine and left in culture for 24 hours. Cells were washed once with Tyrode's buffer (140 mmol/L NaCl, 1 mmol/L CaCl2, 2.7 mmol/L KCl, 0.49 mmol/L MgCl2, 0.37 mmol/L NaH2PO4, 5.6 mmol/L glucose, 12 mmol/L NaHCO3, and 25 mmol/L HEPES, pH 7.5) before performing assays in Tyrode's buffer. Test compounds were incubated with cells for 5 (Gui) or 15 (EEs) minutes at 37° C. before addition of 200 nmol/L of the GPR84 agonist ZQ-16 (2-(Hexylthio)-6-hydroxy-4(3H)-pyrimidinone) for 5 minutes at room temperature (Gui) or 30 minutes at 37° C. (EEs). The Rluc8 substrate coelenterazine 400A (Prolume, Lakeside, AZ) was added at a final concentration of 5 μmol/L and BRET readings were collected using an Infinite M1000 microplate reader (Tecan, Morrisville, NC). BRET^2 readings between Rluc8 and GFP10 or rGFP were collected by sequential integration of the signals detected in the 370 to 450 nm (Rluc8) and 510 to 540 nm (GFP10, rGFP) windows. The BRET signal was calculated as the ratio of light emitted by acceptor (GFP10, rGFP) over the light emitted by donor (Rluc8). The values were corrected to net BRET by subtracting the background BRET signal obtained in cells transfected with Rluc8 constructs alone. Ligand-promoted net BRET values were calculated by subtracting vehicle-induced net BRET from ligand-induced net BRET.
Background: In BRET a luciferase serves as donor, and the signal depends on an acceptor being close.

Molecules are shown by their SMILES.

T1 sequence (Q9NQS5 whole entry): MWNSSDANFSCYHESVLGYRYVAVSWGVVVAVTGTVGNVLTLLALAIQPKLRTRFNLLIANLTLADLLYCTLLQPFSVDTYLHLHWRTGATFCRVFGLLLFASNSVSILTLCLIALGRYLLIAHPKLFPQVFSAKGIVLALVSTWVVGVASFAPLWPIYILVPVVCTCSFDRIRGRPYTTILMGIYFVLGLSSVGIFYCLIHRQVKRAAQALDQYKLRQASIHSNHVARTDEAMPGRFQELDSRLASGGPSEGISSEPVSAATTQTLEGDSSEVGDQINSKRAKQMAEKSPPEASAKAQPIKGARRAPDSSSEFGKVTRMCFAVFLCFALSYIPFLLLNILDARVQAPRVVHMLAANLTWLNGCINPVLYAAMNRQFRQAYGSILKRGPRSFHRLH

One may read the IC50 as the concentration needed to halve the response being measured. The inhibition is how much of the control response was suppressed. Higher therefore signals a strong effect. Turning to `Cc1cc(C#CC2CC2)ccc1N(C(=O)c1cn(CC2OCC3(CC3)CO2)nn1)C1CC1` [Compound I-83], the IC50 is at most 300 nM. Also, the inhibition at 2 µM (HEK293, single concentration) was over 75%.

As to `Cc1cc(C#CC2CC2)cc(C)c1N(C)C(=O)c1cn(CC2OCC3(CC3)CO2)nn1` [Compound I-60], the IC50 was in the range of 300 to 1000 nM. Besides, the inhibition at 10 µM (HEK293, single concentration) was over 75%. Turning to `Cc1ccc(C#CC2CC2)cc1C(=O)N(C)c1cn(CC2OCC3(CC3)CO2)nn1` [Compound I-16], the inhibition at 10 µM (HEK293, single concentration) is at most 25%. Take `O=C(c1cn(CC2OCC3(CC3)CO2)nn1)N(c1cc(C#CC2CC2)ccc1Br)C1CC1` [Compound I-92]: the IC50 was 300 to 1000 nM. Further, the inhibition at 2 µM (HEK293, single concentration) was over 75%. For `Cc1cc(C#CC2CC2)ccc1N(C)S(=O)(=O)c1cn(CC2OCC3(CC3)CO2)nn1` [Compound I-56], for the setting “HEK293, single concentration”, the inhibition at 10 µM is over 75%.

The molecule `Cc1cc(OCC(=O)N(C)C)ccc1C(=O)N(C)c1cc(C#CC2CC2)ccc1C` [Compound I-27] returned an inhibition at 10 µM (HEK293, single concentration) of at most 25%. With `CN(C(=O)c1cn(CC2OCC3(CC3)CO2)nn1)c1ccc(C#CC2CC2)cc1Cl` [Compound I-94], the IC50 is at most 300 nM. Further, the inhibition at 2 µM (HEK293, single concentration) is over 75%. With `Cc1ccc(C#CC2CC2)c2c1N(C(=O)c1cn(CC3OCC4(CC4)CO3)nn1)CC2` [Compound I-4, (1-((5,7-dioxaspiro[2.5]octan-6-yl)methyl)-1H-1,2,3-triazol-4-yl)(4-(cyclopropylethynyl)-7-methylindolin-1-yl)methanone], for the setting “HEK293, single concentration”, the inhibition at 10 µM was at most 25%. For `Cc1c(NC(=O)c2cccc(C#CC3CC3)c2)nnn1CC1OCC2(CC2)CO1` [Compound I-64], the inhibition at 10 µM (HEK293, single concentration) was at most 25%. For the molecule `O=C(c1cn(CC2OCC3(CC3)CO2)nn1)N(c1cc(C#CC2CC2)ccc1F)C1CC1` [Compound I-90], the IC50 was at most 300 nM. The molecule further yielded an inhibition at 10 µM (HEK293, single concentration) of over 75%. For the setting “HEK293, single concentration”, `Cc1ccc(C#CC2CC2)cc1Nc1cn(CC(=O)N(C)C)nn1` [Compound I-6, 2-(4-((5-(cyclopropylethynyl)-2-methylphenyl)amino)-1H-1,2,3-triazol-1-yl)-N,N-dimethylacetamide] had an inhibition at 2 µM of at most 25%. The molecule `Cc1cc(C#CC2CC2)ccc1CN(C)c1cn(CC2OCC3(CC3)CO2)nn1` [Compound I-22] displayed an inhibition at 10 µM (HEK293, single concentration) of over 75%. Where the note is “HEK293, single concentration”, `O=C(Nc1cc(C#CC2CC2)ccc1Cl)c1cn(CC2OCC3(CC3)CO2)nn1` [Compound I-96] registered an inhibition at 10 µM of at most 25%. As to `Cc1ccc(C#CC2CC2)cc1N(C)c1cn(CC(=O)N(C)C)nn1` [Compound I-7, 2-(4-((5-(cyclopropylethynyl)-2-methylphenyl)(methyl)amino)-1H-1,2,3-triazol-1-yl)-N,N-dimethylacetamide], for the setting “HEK293, single concentration”, the inhibition at 10 µM was over 75%. Consider `Cc1cc(C#CC2CC2)ccc1NCc1cn(CC2OCC3(CC3)CO2)nn1` [Compound I-39], for which the inhibition at 10 µM (HEK293, single concentration) is 25 to 50%. For the molecule `Cc1cc(F)c(C#CC2CC2)cc1N(C)C(=O)c1cn(CC2OCC3(CC3)CO2)nn1` [Compound I-100], the IC50 is at most 300 nM. In addition, the inhibition at 2 µM (HEK293, single concentration) was over 75%. In turn, `Cc1ccccc1N(C)C(=O)c1cn(CC2OCC3(CC3)CO2)nn1` [Compound I-33] gave an inhibition at 10 µM (HEK293, single concentration) of at most 25%. In turn, `O=C(c1cn(CC2OCC3(CC3)CO2)nn1)N(c1ccc(C#CC2CC2)cc1F)C1CC1` [Compound I-91] showed a half-maximal inhibitory concentration (IC50) of at most 300 nM. Under “HEK293, single concentration”, the inhibition at 2 µM was over 75%. The molecule `CN(C(=O)c1cn(CC2OCC3(CC3)CO2)nn1)c1ccc(C#CC2CC2)cc1F` [Compound I-29] returned an IC50 of at most 300 nM. Where the note is “HEK293, single concentration”, the inhibition at 2 µM is over 75%. `Cc1ccc(C#CC2CC2)cc1N(C)Cc1cn(CC2OCC3(CC3)CO2)nn1` [Compound I-12, N-((1-((5,7-dioxaspiro[2.5]octan-6-yl)methyl)-1H-1,2,3-triazol-4-yl)methyl)-5-(cyclopropylethynyl)-N,2-dimethylaniline] showed an inhibition at 10 µM (HEK293, single concentration) of 25 to 50%. Consider `Cc1ccc(C#CC2CC2)cc1CN(C)c1cn(CC2OCC3(CC3)CO2)nn1` [Compound I-10, 1-((5,7-dioxaspiro[2.5]octan-6-yl)methyl)-N-(5-(cyclopropylethynyl)-2-methylbenzyl)-N-methyl-1H-1,2,3-triazol-4-amine], for which the inhibition at 10 µM (HEK293, single concentration) was in the range of 25 to 50%. As to `CN(C(=O)c1cn(CC2OCC3(CC3)CO2)nn1)c1cccc(C#CC2CC2)c1` [Compound I-23], the IC50 lay in the range of 300 to 1000 nM. The molecule also yielded an inhibition at 10 µM (HEK293, single concentration) of over 75%. The molecule `Cc1ccc(N(C)C(=O)c2cn(CC3OCC4(CC4)CO3)nn2)nc1C#CC1CC1` [Compound I-50] came in with an inhibition at 10 µM (HEK293, single concentration) of at most 25%. Molecule `Cc1ccc(C#CC2CC2)cc1N(C)C(=O)c1ccc(=O)n(CC(=O)N(C)C)c1C` [Compound I-3, N-(5-(cyclopropylethynyl)-2-methylphenyl)-1-(2-(dimethylamino)-2-oxoethyl)-N,2-dimethyl-6-oxo-1,6-dihydropyridine-3-carboxamide] returned an inhibition at 10 µM (HEK293, single concentration) of at most 25%.

With `Cc1cc(C#CC2CC2)ccc1N(C)C1(c2cn(CC3OCC4(CC4)CO3)nn2)COC1` [Compound I-95], the inhibition at 10 µM (HEK293, single concentration) was over 75%. Take `Cc1ccc(C#CC2CC2)cc1C(=O)Nc1cn(CC2OCC3(CC3)CO2)nn1` [Compound I-9, N-(1-((5,7-dioxaspiro[2.5]octan-6-yl)methyl)-1H-1,2,3-triazol-4-yl)-5-(cyclopropylethynyl)-2-methylbenzamide]: the inhibition at 6.7 µM (HEK293, single concentration, code E = 6.7 μM) was at most 25%.

With `Cc1c(N(C)C(=O)c2cccc(C#CC3CC3)c2)nnn1CC1OCC2(CC2)CO1` [Compound I-63], the inhibition at 10 µM (HEK293, single concentration) was at most 25%. As for `Cc1ccc(C#CC2CC2)cc1N(C)C(=O)c1cn(CC2OCC3(CC3)CO2)nn1` [Compound I-17], the IC50 is at most 300 nM. Besides, the inhibition at 2 µM (HEK293, single concentration) is over 75%. Molecule `Cc1cc(C#CC2CC2)ccc1NC(=O)c1cn(CC2OCC3(CC3)CO2)nn1` [Compound I-18] gave an inhibition at 10 µM (HEK293, single concentration) of at most 25%. Under “HEK293, single concentration”, `Cc1cc(C#CC2CC2)ccc1C(=O)N(C)c1cn(CC2OCC3(CC3)CO2)nn1` [Compound I-19] came in with an inhibition at 10 µM of 50 to 75%.

As to `Cc1ccc(C#CC2CC2)c2c1N(C(=O)c1cn(CC3OCC4(CC4)CO3)nn1)CCC2` [Compound I-48], the inhibition at 10 µM (HEK293, single concentration) is over 75%.

As to `COc1cc(C#CC2CC2)cc(NC(=O)c2cn(CC3OCC4(CC4)CO3)nn2)c1` [Compound I-98], the inhibition at 10 µM (HEK293, single concentration) was at most 25%. On to `Cc1ccc(C#CC2CC2)cc1N(C)C(=O)c1ccc(OCC(=O)N(C)C)nc1C` [Compound I-2, N-(5-(cyclopropylethynyl)-2-methylphenyl)-6-(2-(dimethylamino)-2-oxoethoxy)-N,2-dimethylnicotinamide], for which the inhibition at 10 µM (HEK293, single concentration) was at most 25%. On to `Cc1cc(C#CC2CC2)ccc1C(=O)Nc1cn(CC2OCC3(CC3)CO2)nn1` [Compound I-20], for which the inhibition at 10 µM (HEK293, single concentration) is at most 25%.

The molecule `Cc1ccc(C#CC2CC2)cc1N(C)C(=O)c1cn(CCC(=O)N(C)C)nn1` [Compound I-24] gave an inhibition at 10 µM (HEK293, single concentration) of at most 25%. Molecule `Cc1ccc(C#CC2CC2)cc1N(C)C(=O)c1c(C)cc(OCC(=O)N(C)C)cc1C` [Compound I-35] returned an inhibition at 10 µM (HEK293, single concentration) of 25 to 50%.

Molecule `Cc1cc(C#CC2CC2)ccc1N(C)C(=O)c1cn(CC2OCC3(CC3)CO2)nn1` [Compound I-21] registered an IC50 of at most 300 nM. The molecule further displayed an inhibition at 10 µM (HEK293, single concentration) of over 75%.

The values are drawn from US20260028330A1, “HETEROARYL CARBOXAMIDE AND RELATED GPR84 ANTAGONISTS AND USES THEREOF” (LIMINAL BIOSCIENCES LIMITED, priority 2022, published 2026).
